# According to publication PMC8408929, “Influence of osmolality on gastrointestinal fluid volume and drug absorption: potential impact on oral salt supplementation” (Journal of Pharmaceutical Health Care and Sciences, 2021):
# Tests used:
# [1] = test system: rat intestine (jejunum, ileum and colon); experiment: in situ rat intestinal closed loop method; conditions: 30 min
# Method: The in situ rat intestinal closed loop method was carried out as described previously. Male Wistar rats (7–8 weeks old; 250 ± 20 g body weight) were fasted overnight and anesthetized by intraperitoneal injection of a triple anesthetic combination (medetomidine, midazolam and butorphanol). The abdominal cavity was opened and an intestinal loop (jejunum, 10 cm; ileum, 10 cm; colon, 7 cm) was made by cannulation into both ends of the jejunum, ileum and colon with silicone tubing (i.d., 3 mm). The intestinal contents were washed out through the cannulas with saline. […] One mL of test compound solution (10 μM) was introduced into the intestinal loop and both ends of the loop were ligated. At the designated times (30 min), test compound solution in the loop was collected by flushing with air (for measuring the luminal concentration of test compound, Cout), and then made up to 10 mL with buffer solution (for measuring the amount of test compound, Xout). The volume of luminal water (mL) in each segment of intestine was calculated using the following equation: 1 Vwater=Xout/Cout where Vwater (mL) is the water volume in each segment of intestine, Cout is the luminal concentration of test compound (μM), and Xout is the amount of test compound (μmol). The fraction absorbed of test compound was calculated from the remaining amount of test compound in each intestinal loop. Final results were normalized to the surface area calculated from the radius and length of each segment of intestine. The radii of the small and large intestines reported by Fagerholm et al. were used (0.178 cm and 0.252 cm, respectively).
# Concentrations of FD-4 were measured with a microplate fluorescence reader (VarioskanTM Flash 2.4; Thermo Fisher Scientific Inc., Kanagawa, Japan) at excitation/emission wavelengths of 492/515 nm.
# An Agilent Eclitse plus (C18, 50 × 2.1 mm, 5 μm) was used as the analytical column. […] Analyst software version 1.4.2 (AB SCIEX) was used for data manipulation.
# intestine = test system: intestine; set-up: method as in PMID 28450238; conditions: administered in purified water vs isosmotic solution; cited from earlier work
# [2] = set-up: method as in not given; conditions: low-permeability drugs; ref not given; cited from earlier work
compound,measurement,setting,value
fluorescein isothiocyanate-dextran 4000 [FD-4],luminal concentration,"[1]; colon, 10 μM dosed in hyperosmotic solution (10% NaCl)",6.25 ± 0.15 µM
same,luminal concentration,"[1]; colon, 10 μM dosed in purified water",27.4 ± 2.0 µM
same,luminal concentration,"[1]; ileum, 10 μM dosed in hyperosmotic solution (10% NaCl)",6.47 ± 0.68 µM
same,luminal concentration,"[1]; ileum, 10 μM dosed in purified water",13.2 ± 0.7 µM
same,luminal concentration,"[1]; jejunum, 10 μM dosed in hyperosmotic solution (10% NaCl)",5.30 ± 0.31 µM
same,luminal concentration,"[1]; jejunum, 10 μM dosed in purified water",13.7 ± 0.8 µM
CC(C)NCC(O)COc1ccc(CC(N)=O)cc1 (stereo not shown) [atenolol],"fraction absorbed, purified water compared with isosmotic solution",intestine,significantly greater
NS(=O)(=O)c1cc(C(=O)O)c(NCc2ccco2)cc1Cl [furosemide],BCS Class,[2],Class IV
Cc1ccccc1C(=O)Nc1ccc(C(=O)N2CCCC(O)c3cc(Cl)ccc32)c(C)c1 (stereo not shown) [tolvaptan],BCS Class,[2],Class IV
Cc1cc(=O)n(-c2ccccc2)n1C [antipyrine],"fraction absorbed, purified water compared with isosmotic solution",intestine,no significant difference
